Test results reported in publication PMC12621043, “Un-LOK-ing a New Approach for Conformational Selective Targeting of STK10 (LOK)” (ACS Medicinal Chemistry Letters, 2025).

Assays:
Experiment in all cases: DSF Tm panel
Type in all cases: binding
Details in all cases: 10 μM compound
[1] = target: T1, STK3 (STK3A) (Homo sapiens, UniProt Q13188)
T1 construct: purchased in-house DSF kinase panel (SGC-style construct names; the trailing letter is the construct ID)
T1 sequence (Q13188 16-313): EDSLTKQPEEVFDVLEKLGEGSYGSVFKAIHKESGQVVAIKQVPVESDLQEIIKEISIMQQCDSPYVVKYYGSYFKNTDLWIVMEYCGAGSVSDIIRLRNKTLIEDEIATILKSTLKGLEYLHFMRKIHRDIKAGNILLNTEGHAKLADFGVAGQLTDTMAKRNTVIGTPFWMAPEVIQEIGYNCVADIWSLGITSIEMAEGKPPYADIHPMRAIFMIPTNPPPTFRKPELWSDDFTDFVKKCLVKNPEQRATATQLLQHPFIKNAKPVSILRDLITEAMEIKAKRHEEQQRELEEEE

[2] = target: T2, FGFR2A (Homo sapiens, UniProt P21802)
T2 construct: purchased in-house DSF kinase panel (SGC-style construct names; the trailing letter is the construct ID)

[3] = target: T3, DYRK2A (Homo sapiens, UniProt Q92630)
T3 construct: purchased in-house DSF kinase panel (SGC-style construct names; the trailing letter is the construct ID)
T3 sequence (Q92630 1-601): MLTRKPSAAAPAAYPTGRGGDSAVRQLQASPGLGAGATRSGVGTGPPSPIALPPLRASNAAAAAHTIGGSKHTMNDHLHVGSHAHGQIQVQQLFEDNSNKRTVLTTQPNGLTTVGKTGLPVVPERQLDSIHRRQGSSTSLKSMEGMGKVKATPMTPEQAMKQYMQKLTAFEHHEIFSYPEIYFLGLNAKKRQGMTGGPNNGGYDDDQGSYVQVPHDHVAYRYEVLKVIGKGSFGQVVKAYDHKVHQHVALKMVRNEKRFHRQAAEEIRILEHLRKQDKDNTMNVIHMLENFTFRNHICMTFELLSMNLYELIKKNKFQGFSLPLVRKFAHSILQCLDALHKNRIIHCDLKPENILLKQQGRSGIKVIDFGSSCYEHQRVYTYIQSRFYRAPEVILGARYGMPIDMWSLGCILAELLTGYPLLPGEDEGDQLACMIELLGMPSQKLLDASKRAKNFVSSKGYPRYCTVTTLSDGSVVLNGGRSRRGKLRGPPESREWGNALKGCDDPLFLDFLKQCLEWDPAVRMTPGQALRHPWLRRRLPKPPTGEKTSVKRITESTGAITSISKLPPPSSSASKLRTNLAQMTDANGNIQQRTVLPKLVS

[4] = target: T4, CLK1A (Homo sapiens, UniProt P49759)
T4 construct: purchased in-house DSF kinase panel (SGC-style construct names; the trailing letter is the construct ID)

[5] = target: T5, STK39A (Homo sapiens, UniProt Q9UEW8)
T5 construct: purchased in-house DSF kinase panel (SGC-style construct names; the trailing letter is the construct ID)

[6] = target: T6, MARK4A (Homo sapiens, UniProt Q96L34)
T6 construct: purchased in-house DSF kinase panel (SGC-style construct names; the trailing letter is the construct ID)

[7] = target: T7, CAMK2BA (Homo sapiens, UniProt Q13554)
T7 construct: purchased in-house DSF kinase panel (SGC-style construct names; the trailing letter is the construct ID)

[8] = target: T8, MST4A (Homo sapiens, UniProt Q9P289)
T8 construct: purchased in-house DSF kinase panel (SGC-style construct names; the trailing letter is the construct ID)

[9] = target: T9, GPRK5A (Homo sapiens, UniProt P34947)
T9 construct: purchased in-house DSF kinase panel (SGC-style construct names; the trailing letter is the construct ID)

[10] = target: T10, BRAFA (Homo sapiens, UniProt P15056)
T10 construct: purchased in-house DSF kinase panel (SGC-style construct names; the trailing letter is the construct ID)

[11] = target: T11, EPHB3A (Homo sapiens, UniProt P54753)
T11 construct: purchased in-house DSF kinase panel (SGC-style construct names; the trailing letter is the construct ID)
T11 sequence (P54753 34-998): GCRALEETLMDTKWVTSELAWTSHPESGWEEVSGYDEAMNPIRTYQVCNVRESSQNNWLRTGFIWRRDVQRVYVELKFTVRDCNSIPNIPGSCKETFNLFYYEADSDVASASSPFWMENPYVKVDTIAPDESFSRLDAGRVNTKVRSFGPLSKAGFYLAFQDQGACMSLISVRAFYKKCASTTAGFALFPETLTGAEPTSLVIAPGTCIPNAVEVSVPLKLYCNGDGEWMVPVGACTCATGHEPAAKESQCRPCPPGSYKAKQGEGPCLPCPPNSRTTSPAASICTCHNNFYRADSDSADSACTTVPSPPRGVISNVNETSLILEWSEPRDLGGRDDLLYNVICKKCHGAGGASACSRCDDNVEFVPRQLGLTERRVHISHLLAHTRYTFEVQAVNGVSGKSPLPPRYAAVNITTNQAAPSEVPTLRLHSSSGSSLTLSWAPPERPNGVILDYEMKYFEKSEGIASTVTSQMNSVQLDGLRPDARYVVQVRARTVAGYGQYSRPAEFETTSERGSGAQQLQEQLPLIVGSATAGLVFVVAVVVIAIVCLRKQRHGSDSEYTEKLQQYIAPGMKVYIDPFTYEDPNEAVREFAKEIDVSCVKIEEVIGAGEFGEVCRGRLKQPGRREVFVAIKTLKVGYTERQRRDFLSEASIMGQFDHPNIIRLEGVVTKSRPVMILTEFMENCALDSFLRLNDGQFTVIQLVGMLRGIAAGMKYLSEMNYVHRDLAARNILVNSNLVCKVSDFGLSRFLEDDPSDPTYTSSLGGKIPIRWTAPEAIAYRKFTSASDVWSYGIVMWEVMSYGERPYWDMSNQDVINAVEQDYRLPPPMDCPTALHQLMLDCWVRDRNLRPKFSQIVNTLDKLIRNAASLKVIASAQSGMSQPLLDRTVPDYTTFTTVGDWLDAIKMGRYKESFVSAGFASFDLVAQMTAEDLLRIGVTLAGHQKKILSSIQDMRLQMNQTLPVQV

[12] = target: T12, GSG2A (Homo sapiens, UniProt Q8TF76)
T12 construct: purchased in-house DSF kinase panel (SGC-style construct names; the trailing letter is the construct ID)
T12 sequence (Q8TF76 465-798): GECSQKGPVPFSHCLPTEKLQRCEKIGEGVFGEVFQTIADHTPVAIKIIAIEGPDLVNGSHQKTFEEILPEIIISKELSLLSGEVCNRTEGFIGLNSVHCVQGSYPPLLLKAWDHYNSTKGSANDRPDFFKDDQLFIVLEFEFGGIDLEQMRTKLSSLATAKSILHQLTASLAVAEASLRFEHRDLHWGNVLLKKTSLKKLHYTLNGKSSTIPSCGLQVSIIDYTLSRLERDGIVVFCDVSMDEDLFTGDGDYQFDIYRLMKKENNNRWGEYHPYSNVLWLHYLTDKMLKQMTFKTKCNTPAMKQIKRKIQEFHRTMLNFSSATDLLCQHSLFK

[13] = target: T13, CDKL1A (Homo sapiens, UniProt Q00532)
T13 construct: purchased in-house DSF kinase panel (SGC-style construct names; the trailing letter is the construct ID)

[14] = target: T14, MAPK10A (Homo sapiens, UniProt P53779)
T14 construct: purchased in-house DSF kinase panel (SGC-style construct names; the trailing letter is the construct ID)

[15] = target: T15, MAPK14A (Homo sapiens, UniProt Q16539)
T15 construct: purchased in-house DSF kinase panel (SGC-style construct names; the trailing letter is the construct ID)
T15 sequence (Q16539 whole entry): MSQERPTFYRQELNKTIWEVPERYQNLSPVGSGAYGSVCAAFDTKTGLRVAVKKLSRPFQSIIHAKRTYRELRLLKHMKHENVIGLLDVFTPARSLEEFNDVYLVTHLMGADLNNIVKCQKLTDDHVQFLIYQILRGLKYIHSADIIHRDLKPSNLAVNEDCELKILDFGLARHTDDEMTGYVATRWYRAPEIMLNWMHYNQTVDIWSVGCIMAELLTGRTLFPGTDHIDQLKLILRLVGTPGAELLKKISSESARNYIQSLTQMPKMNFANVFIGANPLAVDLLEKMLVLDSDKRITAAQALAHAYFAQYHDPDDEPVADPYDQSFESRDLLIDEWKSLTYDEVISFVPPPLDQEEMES

T7 sequence (Q13554 11-303): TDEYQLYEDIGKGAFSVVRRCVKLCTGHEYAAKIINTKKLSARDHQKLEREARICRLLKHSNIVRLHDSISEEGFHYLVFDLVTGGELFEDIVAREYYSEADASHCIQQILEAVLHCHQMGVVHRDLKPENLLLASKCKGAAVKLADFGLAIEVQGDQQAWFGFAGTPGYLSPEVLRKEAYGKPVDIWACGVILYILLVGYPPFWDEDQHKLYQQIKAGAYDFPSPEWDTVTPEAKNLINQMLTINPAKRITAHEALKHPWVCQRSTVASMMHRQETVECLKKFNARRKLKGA
T10 sequence (P15056 448-723): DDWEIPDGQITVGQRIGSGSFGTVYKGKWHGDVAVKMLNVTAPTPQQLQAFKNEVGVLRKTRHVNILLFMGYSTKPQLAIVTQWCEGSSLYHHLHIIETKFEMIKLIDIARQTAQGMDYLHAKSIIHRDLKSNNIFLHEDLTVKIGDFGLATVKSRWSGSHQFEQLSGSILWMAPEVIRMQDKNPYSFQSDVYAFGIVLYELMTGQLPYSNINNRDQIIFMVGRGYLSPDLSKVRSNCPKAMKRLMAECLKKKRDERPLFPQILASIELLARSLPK
T4 sequence (P49759 148-484): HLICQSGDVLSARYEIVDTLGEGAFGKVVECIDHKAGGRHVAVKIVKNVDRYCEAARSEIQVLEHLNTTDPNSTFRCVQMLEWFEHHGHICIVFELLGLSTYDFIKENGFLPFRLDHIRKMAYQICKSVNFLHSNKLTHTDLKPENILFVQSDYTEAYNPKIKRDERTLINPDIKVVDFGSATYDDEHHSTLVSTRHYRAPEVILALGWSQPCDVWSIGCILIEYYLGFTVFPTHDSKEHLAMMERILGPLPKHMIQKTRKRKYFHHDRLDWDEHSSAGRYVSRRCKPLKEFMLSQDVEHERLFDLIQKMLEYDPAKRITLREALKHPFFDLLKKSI
T2 sequence (P21802 458-770): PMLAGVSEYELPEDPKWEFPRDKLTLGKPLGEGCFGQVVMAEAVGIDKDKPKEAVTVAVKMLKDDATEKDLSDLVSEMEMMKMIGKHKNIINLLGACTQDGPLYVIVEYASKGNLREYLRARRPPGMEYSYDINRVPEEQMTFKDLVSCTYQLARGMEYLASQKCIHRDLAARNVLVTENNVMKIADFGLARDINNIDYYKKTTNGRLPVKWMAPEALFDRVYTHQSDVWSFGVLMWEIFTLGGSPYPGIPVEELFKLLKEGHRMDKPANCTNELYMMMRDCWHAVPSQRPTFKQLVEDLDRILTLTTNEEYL
T6 sequence (Q96L34 59-310): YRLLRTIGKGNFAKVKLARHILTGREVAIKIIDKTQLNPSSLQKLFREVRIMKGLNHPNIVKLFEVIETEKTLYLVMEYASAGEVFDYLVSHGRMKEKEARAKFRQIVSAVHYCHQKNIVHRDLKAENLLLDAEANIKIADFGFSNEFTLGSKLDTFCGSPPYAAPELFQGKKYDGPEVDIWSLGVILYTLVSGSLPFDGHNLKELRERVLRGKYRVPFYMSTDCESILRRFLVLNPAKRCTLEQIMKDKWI
T8 sequence (Q9P289 1-300): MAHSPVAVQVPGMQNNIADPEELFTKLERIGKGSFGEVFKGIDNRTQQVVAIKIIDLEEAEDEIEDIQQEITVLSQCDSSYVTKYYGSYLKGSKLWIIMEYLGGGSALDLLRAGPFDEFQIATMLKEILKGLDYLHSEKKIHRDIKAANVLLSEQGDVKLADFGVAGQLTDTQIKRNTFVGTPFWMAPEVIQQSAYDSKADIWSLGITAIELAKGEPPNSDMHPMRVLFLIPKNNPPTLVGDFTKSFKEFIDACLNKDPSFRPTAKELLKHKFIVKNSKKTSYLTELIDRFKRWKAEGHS
T13 sequence (Q00532 1-303): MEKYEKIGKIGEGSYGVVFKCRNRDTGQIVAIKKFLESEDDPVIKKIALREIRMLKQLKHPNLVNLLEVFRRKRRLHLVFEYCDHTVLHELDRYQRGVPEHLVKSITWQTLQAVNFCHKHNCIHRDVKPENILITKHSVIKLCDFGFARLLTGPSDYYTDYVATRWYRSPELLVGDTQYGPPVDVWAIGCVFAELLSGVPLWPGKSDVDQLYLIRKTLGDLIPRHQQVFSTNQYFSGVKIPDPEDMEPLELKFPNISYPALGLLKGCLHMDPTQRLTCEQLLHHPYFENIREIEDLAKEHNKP
T14 sequence (P53779 39-402): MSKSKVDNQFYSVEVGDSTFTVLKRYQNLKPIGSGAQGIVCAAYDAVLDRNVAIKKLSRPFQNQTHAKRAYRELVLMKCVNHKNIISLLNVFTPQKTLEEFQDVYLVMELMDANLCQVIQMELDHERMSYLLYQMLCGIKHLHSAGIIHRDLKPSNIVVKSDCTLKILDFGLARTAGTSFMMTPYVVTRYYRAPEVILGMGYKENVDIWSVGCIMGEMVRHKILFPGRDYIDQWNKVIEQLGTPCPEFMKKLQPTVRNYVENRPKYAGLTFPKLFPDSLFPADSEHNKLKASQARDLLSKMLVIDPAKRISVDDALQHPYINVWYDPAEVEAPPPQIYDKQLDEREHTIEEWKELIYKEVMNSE
T9 sequence (P34947 186-514): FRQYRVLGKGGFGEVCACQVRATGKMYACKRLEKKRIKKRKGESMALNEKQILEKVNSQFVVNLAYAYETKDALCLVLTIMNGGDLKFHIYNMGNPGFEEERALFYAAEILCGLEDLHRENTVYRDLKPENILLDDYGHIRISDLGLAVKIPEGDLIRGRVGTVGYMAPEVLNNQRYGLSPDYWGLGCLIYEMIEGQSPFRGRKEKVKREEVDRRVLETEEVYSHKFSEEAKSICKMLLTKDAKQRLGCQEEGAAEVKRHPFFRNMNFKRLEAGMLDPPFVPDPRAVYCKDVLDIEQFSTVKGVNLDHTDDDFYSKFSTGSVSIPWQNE

SMILES | ΔTm at 10 µM [1] [°C] | ΔTm at 10 µM [2] [°C] | ΔTm at 10 µM [3] [°C] | ΔTm at 10 µM [4] [°C] | ΔTm at 10 µM [5] [°C] | ΔTm at 10 µM [6] [°C] | ΔTm at 10 µM [7] [°C] | ΔTm at 10 µM [8] [°C] | ΔTm at 10 µM [9] [°C] | ΔTm at 10 µM [10] [°C] | ΔTm at 10 µM [11] [°C] | ΔTm at 10 µM [12] [°C] | ΔTm at 10 µM [13] [°C] | ΔTm at 10 µM [14] [°C] | ΔTm at 10 µM [15] [°C]
COc1ccccc1CNC(=O)Nc1ccc2cc1OCCOCCNc1ccn3ncc-2c3n1 [compound 29] | 3.4 | 2.9 | 1.5 | 2.8 | 0.8 | 1.9 | -0.2 | 0.2 | 0.4 | -0.4 | 0.4 | 0.6 | 0.2 | 0.3 | 0.9
COc1cccc(CNC(=O)Nc2ccc3cc2OCCOCCNc2ccn4ncc-3c4n2)c1 [compound 30] | 3.7 | 3.1 | 3.1 | 2.5 | 1.2 | 1.5 | -0.2 | 0.3 | 0.5 | -0.2 | 0.3 | 0.7 | 0.3 | 0.5 | 0.9
COc1ccc(CNC(=O)Nc2ccc3cc2OCCOCCNc2ccn4ncc-3c4n2)cc1 [compound 31] | 4.4 | 3.1 | 1.9 | 2.8 | 1.2 | 2 | -0.1 | 0.9 | 0.9 | -0.5 | 0.8 | 1.2 | 0.6 | 0.7 | 1.5
COc1ccc(CNC(=O)Nc2ccc3cc2OCCOCCNc2ccn4ncc-3c4n2)cc1F [compound 32] | 4.7 | 2.8 | 1.8 | 2.7 | 1.4 | 2.5 | 0 | 1.2 | 0.7 | -0.2 | 0.6 | 1 | 0.5 | 0.8 | 2.4
COc1cc(CNC(=O)Nc2ccc3cc2OCCOCCNc2ccn4ncc-3c4n2)ccc1F [compound 33] | 3.9 | 3.7 | 3.9 | 4.7 | 1.2 | 2.2 | 0.1 | 1.2 | 2.2 | -0.6 | 0.8 | 2.8 | 0.5 | 0.7 | 1.4
C[C@H](NC(=O)Nc1ccc2cc1OCCOCCNc1ccn3ncc-2c3n1)c1ccccc1 [compound 34] | 3.6 | 2.8 | 4.3 | 3.1 | 1 | 0.9 | -0.3 | 0.4 | 0.2 | -0.5 | 0.5 | 0.1 | 0.2 | 0.1 | 1.3
CN1CCN(C(=O)Nc2ccc3cc2OCCOCCNc2ccn4ncc-3c4n2)CC1 [compound 35] | 3.3 | 1.5 | 1.8 | 2.9 | 1.6 | 0.8 | 0.6 | -0.4 | 0.8 | 1.2 | 0.6 | 1.3 | -0.2 | -0.7 | -0.3
